Measurements published in patent US8198273B2, “Compounds and methods for kinase modulation, and indications therefor” (Plexxikon Inc., priority 2009, dated 2012).

How the values were obtained:
B-Raf V600E = B-Raf V600E (Homo sapiens, UniProt P15056, V600E); experiment: B-Raf V600E biochemical kinase inhibition (AlphaScreen, biotin-MEK1 substrate); conditions: 100 μM ATP
How it was run: (§1)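 Raf kinases phosphorylating biotin-MEK1, reaction started with ATP at 100 μM final. Compounds tested at 8 points by serial dilution from a 0.1 mM DMSO stock.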

c-Raf-1 = c-Raf-1 (Homo sapiens, UniProt P04049); experiment: c-Raf-1 biochemical kinase inhibition (AlphaScreen, biotin-MEK1 substrate); conditions: 100 μM ATP
How it was run: as §1

[1] = Relative solubility by turbidity in aqueous buffers of varying pH; type: physicochemical; conditions: for turbidity threshold (L, M, H) 7.4: HEPES pH 7.4; for turbidity threshold (L, M, H) 4.5: SIF pH 4.5; for turbidity threshold (L, M, H) 6.8: SIF pH 6.8; for turbidity threshold (L, M, H) 1.4: buffer pH 1.4 (SGF)
How it was run: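 Turbidity endpoint: concentration where optical density at 490, 535 and 650 nm exceeds 0.01, three-wavelength average used. Buffers at pH 1.5, 4.5, 6.8 and 7.4; DMSO serial dilutions of 25 mM stock spiked 1 μL into 99 μL buffer. Low <31.3, moderate 31.3–250, high >250 μM.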

CYP2C19 = CYP2C19 (Homo sapiens, UniProt P33261); experiment: CYP2C19 inhibition (fluorescent substrate); type: in vitro ADME; conditions: CYP2C19, CEC substrate; read-out: Cyp IC50 2C19
How it was run: (§2)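 Human CYP activity was followed by the fluorescence of the metabolized product of a known substrate, which falls as metabolism is inhibited. Compounds from 100 mM DMSO stocks were serially diluted 1:1 over 10 points in co-factor mix and preincubated 10 min at 37 °C. IC50 was fitted from signal versus concentration.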

CYP2D6 = CYP2D6 (Homo sapiens, UniProt P10635); experiment: CYP2D6 inhibition (fluorescent substrate); type: in vitro ADME; conditions: CYP2D6, AMMC substrate; read-out: Cyp IC50 2D6
How it was run: as §2

Chain of CYP2D6 (P10635 whole entry): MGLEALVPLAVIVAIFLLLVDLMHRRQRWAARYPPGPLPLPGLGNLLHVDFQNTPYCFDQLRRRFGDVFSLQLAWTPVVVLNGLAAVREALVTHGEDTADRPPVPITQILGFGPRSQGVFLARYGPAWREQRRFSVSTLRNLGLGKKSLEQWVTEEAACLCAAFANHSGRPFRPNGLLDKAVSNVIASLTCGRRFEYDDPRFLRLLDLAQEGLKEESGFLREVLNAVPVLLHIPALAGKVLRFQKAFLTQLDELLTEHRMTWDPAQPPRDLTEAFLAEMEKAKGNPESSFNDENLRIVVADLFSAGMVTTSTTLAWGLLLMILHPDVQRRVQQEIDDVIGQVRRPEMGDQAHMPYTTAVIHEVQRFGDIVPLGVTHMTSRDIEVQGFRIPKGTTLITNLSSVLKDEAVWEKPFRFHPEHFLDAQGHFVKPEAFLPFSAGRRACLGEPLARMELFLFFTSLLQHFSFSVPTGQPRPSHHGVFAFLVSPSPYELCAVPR
Chain of CYP2C19 (P33261 whole entry): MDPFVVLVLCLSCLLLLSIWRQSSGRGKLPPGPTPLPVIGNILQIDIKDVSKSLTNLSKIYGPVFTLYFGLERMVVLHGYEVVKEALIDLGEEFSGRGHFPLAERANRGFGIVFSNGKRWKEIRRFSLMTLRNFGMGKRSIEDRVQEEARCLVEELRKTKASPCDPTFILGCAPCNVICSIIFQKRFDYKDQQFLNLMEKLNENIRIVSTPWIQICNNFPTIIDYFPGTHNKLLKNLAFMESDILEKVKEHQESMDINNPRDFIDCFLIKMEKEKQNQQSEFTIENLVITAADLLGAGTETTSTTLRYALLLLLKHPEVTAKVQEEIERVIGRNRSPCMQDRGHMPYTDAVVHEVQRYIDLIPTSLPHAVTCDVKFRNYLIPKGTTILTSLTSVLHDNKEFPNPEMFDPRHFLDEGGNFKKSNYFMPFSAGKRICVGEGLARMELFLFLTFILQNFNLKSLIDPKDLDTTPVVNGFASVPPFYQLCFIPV
Chain of c-Raf-1 (P04049 whole entry): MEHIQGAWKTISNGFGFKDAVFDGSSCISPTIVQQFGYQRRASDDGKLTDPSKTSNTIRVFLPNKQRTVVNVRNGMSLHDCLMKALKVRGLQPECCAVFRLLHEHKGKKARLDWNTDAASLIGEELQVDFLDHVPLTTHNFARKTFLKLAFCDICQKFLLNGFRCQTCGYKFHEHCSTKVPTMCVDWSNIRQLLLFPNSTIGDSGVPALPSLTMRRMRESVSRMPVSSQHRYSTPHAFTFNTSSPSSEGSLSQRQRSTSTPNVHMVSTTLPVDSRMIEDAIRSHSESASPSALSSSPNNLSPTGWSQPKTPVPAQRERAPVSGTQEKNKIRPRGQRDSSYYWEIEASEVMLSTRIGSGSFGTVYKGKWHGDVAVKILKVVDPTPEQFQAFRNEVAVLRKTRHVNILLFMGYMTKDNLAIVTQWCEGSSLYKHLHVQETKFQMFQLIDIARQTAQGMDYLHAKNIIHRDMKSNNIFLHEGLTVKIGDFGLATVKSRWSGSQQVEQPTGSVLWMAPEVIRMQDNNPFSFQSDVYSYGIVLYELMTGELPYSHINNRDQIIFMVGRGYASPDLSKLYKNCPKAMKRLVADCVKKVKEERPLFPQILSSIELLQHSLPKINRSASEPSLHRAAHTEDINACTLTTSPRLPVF
Chain of B-Raf V600E (P15056 whole entry V600E): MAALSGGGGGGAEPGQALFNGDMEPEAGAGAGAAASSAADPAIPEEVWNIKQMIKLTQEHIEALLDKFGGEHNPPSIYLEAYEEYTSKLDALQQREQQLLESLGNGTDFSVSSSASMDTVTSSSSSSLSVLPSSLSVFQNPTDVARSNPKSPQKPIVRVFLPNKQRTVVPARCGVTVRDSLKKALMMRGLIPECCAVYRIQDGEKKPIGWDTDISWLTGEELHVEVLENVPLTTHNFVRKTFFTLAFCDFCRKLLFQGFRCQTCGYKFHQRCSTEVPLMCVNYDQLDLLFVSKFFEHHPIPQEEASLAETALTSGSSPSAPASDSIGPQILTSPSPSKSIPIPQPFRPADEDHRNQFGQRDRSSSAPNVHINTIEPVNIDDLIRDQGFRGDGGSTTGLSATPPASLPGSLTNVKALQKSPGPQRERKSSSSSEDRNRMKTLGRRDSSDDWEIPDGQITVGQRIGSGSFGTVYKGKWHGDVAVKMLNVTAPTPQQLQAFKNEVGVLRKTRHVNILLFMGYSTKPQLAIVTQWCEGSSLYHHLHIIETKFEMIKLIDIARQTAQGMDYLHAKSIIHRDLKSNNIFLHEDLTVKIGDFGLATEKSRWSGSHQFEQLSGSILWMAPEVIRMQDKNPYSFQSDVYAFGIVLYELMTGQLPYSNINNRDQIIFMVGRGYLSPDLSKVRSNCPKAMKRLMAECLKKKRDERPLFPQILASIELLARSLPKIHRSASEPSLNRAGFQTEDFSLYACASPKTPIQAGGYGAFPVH

With COc1ccnc2[nH]cc(C(=O)c3c(F)ccc(NS(=O)(=O)c4cc(F)ccc4F)c3F)c12 [P-2022, N-[2,4-Difluoro-3-(4-methoxy-1H-pyrrolo[2,3-b]pyridine-3-carbonyl)-phenyl]-2,5-difluoro-benzenesulfonamide] the IC50 (B-Raf V600E) was under 0.01 µM, the IC50 (c-Raf-1) was under 0.01 µM and the “turbidity threshold (L, M, H) 7.4” value [1] was “H (high solubility if the threshold concentration is >250 μM)”. The “turbidity threshold (L, M, H) 4.5” value [1] was “M (moderate solubility if the threshold concentration is 31.3 μM to 250 μM)”, the “turbidity threshold (L, M, H) 6.8” value [1] was “M (moderate solubility if the threshold concentration is 31.3 μM to 250 μM)” and the “turbidity threshold (L, M, H) 1.4” value [1] was “H (high solubility if the threshold concentration is >250 μM)”. It also gave an IC50 (CYP2C19) of over 10 µM and an IC50 (CYP2D6) of over 10 µM.

In the case of CCCS(=O)(=O)Nc1ccc(F)c(C(=O)c2c[nH]c3ncc(-c4ccc(OCCN5CCCC5)nc4)cc23)c1F [P-2233, Propane-1-sulfonic acid (2,4-difluoro-3-{5-[6-(2-pyrrolidin-1-yl-ethoxy)-pyridin-3-yl]-1H-pyrrolo[2,3-b]pyridine-3-carbonyl}-phenyl)-amide], the IC50 (B-Raf V600E) is reported as under 0.01 µM, the IC50 (c-Raf-1) is reported as under 0.01 µM and the “turbidity threshold (L, M, H) 7.4” value [1] is reported as “M (moderate solubility if the threshold concentration is 31.3 μM to 250 μM)”. The “turbidity threshold (L, M, H) 4.5” value [1] was “M (moderate solubility if the threshold concentration is 31.3 μM to 250 μM)”, the “turbidity threshold (L, M, H) 6.8” value [1] was “L (low solubility if the threshold concentration is <31.3 04)” and the “turbidity threshold (L, M, H) 1.4” value [1] was “L (low solubility if the threshold concentration is <31.3 04)”. The IC50 (CYP2C19) was 5 to 10 µM and the IC50 (CYP2D6) was over 10 µM.

For COc1ncc(-c2cnc3[nH]cc(C(=O)c4c(F)ccc(NS(=O)(=O)c5ccccc5F)c4F)c3c2)cn1 [P-2041, N-{2,4-Difluoro-3-[5-(2-methoxy-pyrimidin-5-yl)-1H-pyrrolo[2,3-b]pyridine-3-carbonyl]-phenyl}-2-fluoro-benzenesulfonamide], the IC50 (B-Raf V600E) was under 0.01 µM, the IC50 (c-Raf-1) was under 0.01 µM and the “turbidity threshold (L, M, H) 7.4” value [1] was “L (low solubility if the threshold concentration is <31.3 04)”. The “turbidity threshold (L, M, H) 4.5” value [1] was “L (low solubility if the threshold concentration is <31.3 04)”, the “turbidity threshold (L, M, H) 6.8” value [1] was “L (low solubility if the threshold concentration is <31.3 04)” and the “turbidity threshold (L, M, H) 1.4” value [1] was “L (low solubility if the threshold concentration is <31.3 04)”. For the same compound, the IC50 (CYP2C19) was over 10 µM and the IC50 (CYP2D6) was over 10 µM.

For CCCS(=O)(=O)Nc1cccc(C(=O)c2c[nH]c3ncc(-c4cnc(OC)nc4)cc23)c1F [P-2407, Propane-1-sulfonic acid {2-fluoro-3-[5-(2-methoxy-pyrimidin-5-yl)-1H-pyrrolo[2,3-b]pyridine-3-carbonyl]-phenyl}-amide], the IC50 (B-Raf V600E) was under 0.01 µM, the IC50 (c-Raf-1) was under 0.01 µM and the “turbidity threshold (L, M, H) 7.4” value [1] was “L (low solubility if the threshold concentration is <31.3 04)”. For the same compound, the “turbidity threshold (L, M, H) 4.5” value [1] was “L (low solubility if the threshold concentration is <31.3 04)”, the “turbidity threshold (L, M, H) 6.8” value [1] was “L (low solubility if the threshold concentration is <31.3 04)” and the “turbidity threshold (L, M, H) 1.4” value [1] was “L (low solubility if the threshold concentration is <31.3 04)”. For the same compound, the IC50 (CYP2C19) was under 5 µM and the IC50 (CYP2D6) was over 10 µM.

With CCCS(=O)(=O)Nc1ccc(F)c(C(=O)c2c[nH]c3ncc(-c4ccc(CCCOC)nc4)cc23)c1F [P-2226, Propane-1-sulfonic acid (2,4-difluoro-3-{5-[6-(3-methoxy-propyl)-pyridin-3-yl]-1H-pyrrolo[2,3-b]pyridine-3-carbonyl}-phenyl)-amide] the IC50 (B-Raf V600E) was under 0.01 µM, the IC50 (c-Raf-1) was under 0.1 µM and the “turbidity threshold (L, M, H) 7.4” value [1] was “L (low solubility if the threshold concentration is <31.3 04)”. For the same compound, the “turbidity threshold (L, M, H) 4.5” value [1] was “L (low solubility if the threshold concentration is <31.3 04)”, the “turbidity threshold (L, M, H) 6.8” value [1] was “L (low solubility if the threshold concentration is <31.3 04)” and the “turbidity threshold (L, M, H) 1.4” value [1] was “H (high solubility if the threshold concentration is >250 μM)”. For the same compound, the IC50 (CYP2C19) was over 10 µM and the IC50 (CYP2D6) was over 10 µM.

With O=C(c1c(F)ccc(NS(=O)(=O)c2cc(F)ccc2F)c1F)c1c[nH]c2ncc(Cl)cc12 [P-2002, N-[3-(5-Chloro-1H-pyrrolo[2,3-b]pyridine-3-carbonyl)-2,4-difluoro-phenyl]-2,5-difluoro-benzenesulfonamide] the IC50 (B-Raf V600E) was under 0.01 µM, the IC50 (c-Raf-1) was under 0.01 µM and the “turbidity threshold (L, M, H) 7.4” value [1] was “M (moderate solubility if the threshold concentration is 31.3 μM to 250 μM)”. The “turbidity threshold (L, M, H) 4.5” value [1] was “L (low solubility if the threshold concentration is <31.3 04)”, the “turbidity threshold (L, M, H) 6.8” value [1] was “M (moderate solubility if the threshold concentration is 31.3 μM to 250 μM)” and the “turbidity threshold (L, M, H) 1.4” value [1] was “L (low solubility if the threshold concentration is <31.3 04)”. It also gave an IC50 (CYP2C19) of 5 to 10 µM and an IC50 (CYP2D6) of over 10 µM.

With N#Cc1cnc2[nH]cc(C(=O)c3cccc(NS(=O)(=O)c4cccc(F)c4)c3F)c2c1 [P-2053, N-[3-(5-Cyano-1H-pyrrolo[2,3-b]pyridine-3-carbonyl)-2-fluoro-phenyl]-3-fluoro-benzenesulfonamide] the IC50 (B-Raf V600E) was under 0.01 µM, the IC50 (c-Raf-1) was under 0.01 µM and the “turbidity threshold (L, M, H) 7.4” value [1] was “M (moderate solubility if the threshold concentration is 31.3 μM to 250 μM)”. For the same compound, the “turbidity threshold (L, M, H) 4.5” value [1] was “L (low solubility if the threshold concentration is <31.3 04)”, the “turbidity threshold (L, M, H) 6.8” value [1] was “M (moderate solubility if the threshold concentration is 31.3 μM to 250 μM)” and the “turbidity threshold (L, M, H) 1.4” value [1] was “L (low solubility if the threshold concentration is <31.3 04)”. For the same compound, the IC50 (CYP2C19) was over 10 µM and the IC50 (CYP2D6) was over 10 µM.

With CCCS(=O)(=O)Nc1ccc(F)c(C(=O)c2c[nH]c3ncc(-c4ccc(C(=O)NCC)nc4)cc23)c1F [P-2151, 5-{3-[2,6-Difluoro-3-(propane-1-sulfonylamino)-benzoyl]-1H-pyrrolo[2,3-b]pyridin-5-yl}-pyridine-2-carboxylic acid ethylamide] the IC50 (B-Raf V600E) was under 0.01 µM, the IC50 (c-Raf-1) was under 0.01 µM and the “turbidity threshold (L, M, H) 7.4” value [1] was “L (low solubility if the threshold concentration is <31.3 04)”. For the same compound, the “turbidity threshold (L, M, H) 4.5” value [1] was “L (low solubility if the threshold concentration is <31.3 04)”, the “turbidity threshold (L, M, H) 6.8” value [1] was “L (low solubility if the threshold concentration is <31.3 04)” and the “turbidity threshold (L, M, H) 1.4” value [1] was “L (low solubility if the threshold concentration is <31.3 04)”. The IC50 (CYP2C19) was over 10 µM and the IC50 (CYP2D6) was over 10 µM.

For CCCS(=O)(=O)Nc1ccc(F)c(C(=O)c2c[nH]c3ncc(-c4ccc(S(N)(=O)=O)cc4)cc23)c1F [P-2194, 4-{3-[2,6-Difluoro-3-(propane-1-sulfonylamino)-benzoyl]-1H-pyrrolo[2,3-b]pyridin-5-yl}-benzenesulfonamide], the IC50 (B-Raf V600E) was under 0.01 µM, the IC50 (c-Raf-1) was under 0.01 µM and the “turbidity threshold (L, M, H) 7.4” value [1] was “L (low solubility if the threshold concentration is <31.3 04)”. For the same compound, the “turbidity threshold (L, M, H) 4.5” value [1] was “L (low solubility if the threshold concentration is <31.3 04)”, the “turbidity threshold (L, M, H) 6.8” value [1] was “L (low solubility if the threshold concentration is <31.3 04)” and the “turbidity threshold (L, M, H) 1.4” value [1] was “L (low solubility if the threshold concentration is <31.3 04)”. It also gave an IC50 (CYP2C19) of over 10 µM and an IC50 (CYP2D6) of over 10 µM.

In the case of CCCS(=O)(=O)Nc1cccc(C(=O)c2c[nH]c3ncc(-c4cnc(N(C)C)nc4)cc23)c1F [P-2408, Propane-1-sulfonic acid {3-[5-(2-dimethylamino-pyrimidin-5-yl)-1H-pyrrolo[2,3-b]pyridine-3-carbonyl]-2-fluoro-phenyl}-amide], the IC50 (B-Raf V600E) is reported as under 0.01 µM, the IC50 (c-Raf-1) is reported as under 0.1 µM and the “turbidity threshold (L, M, H) 7.4” value [1] is reported as “L (low solubility if the threshold concentration is <31.3 04)”. The “turbidity threshold (L, M, H) 4.5” value [1] was “L (low solubility if the threshold concentration is <31.3 04)”, the “turbidity threshold (L, M, H) 6.8” value [1] was “L (low solubility if the threshold concentration is <31.3 04)” and the “turbidity threshold (L, M, H) 1.4” value [1] was “L (low solubility if the threshold concentration is <31.3 04)”. For the same compound, the IC50 (CYP2C19) was over 10 µM and the IC50 (CYP2D6) was over 10 µM.

For COc1ccnc2[nH]cc(C(=O)c3c(F)ccc(NS(=O)(=O)c4cccc(F)c4)c3F)c12 [P-2023, N-[2,4-Difluoro-3-(4-methoxy-1H-pyrrolo[2,3-b]pyridine-3-carbonyl)-phenyl]-3-fluoro-benzenesulfonamide], the IC50 (B-Raf V600E) was under 0.01 µM, the IC50 (c-Raf-1) was under 0.01 µM and the “turbidity threshold (L, M, H) 7.4” value [1] was “M (moderate solubility if the threshold concentration is 31.3 μM to 250 μM)”. The “turbidity threshold (L, M, H) 4.5” value [1] was “M (moderate solubility if the threshold concentration is 31.3 μM to 250 μM)”, the “turbidity threshold (L, M, H) 6.8” value [1] was “M (moderate solubility if the threshold concentration is 31.3 μM to 250 μM)” and the “turbidity threshold (L, M, H) 1.4” value [1] was “H (high solubility if the threshold concentration is >250 μM)”. The IC50 (CYP2C19) was over 10 µM and the IC50 (CYP2D6) was over 10 µM.

For CCCS(=O)(=O)Nc1ccc(F)c(C(=O)c2c[nH]c3ncc(-c4cnc(SC)nc4)cc23)c1F [P-2189, Propane-1-sulfonic acid {2,4-difluoro-3-[5-(2-methylsulfanyl-pyrimidin-5-yl)-1H-pyrrolo[2,3-b]pyridine-3-carbonyl]-phenyl}-amide], the IC50 (B-Raf V600E) was under 0.01 µM, the IC50 (c-Raf-1) was under 0.01 µM and the “turbidity threshold (L, M, H) 7.4” value [1] was “L (low solubility if the threshold concentration is <31.3 04)”. For the same compound, the “turbidity threshold (L, M, H) 4.5” value [1] was “L (low solubility if the threshold concentration is <31.3 04)”, the “turbidity threshold (L, M, H) 6.8” value [1] was “L (low solubility if the threshold concentration is <31.3 04)” and the “turbidity threshold (L, M, H) 1.4” value [1] was “L (low solubility if the threshold concentration is <31.3 04)”. The IC50 (CYP2C19) was 5 to 10 µM and the IC50 (CYP2D6) was over 10 µM.
